Assay results reported in PubChem BioAssay AID1259246 (Broad Institute, 2017).
“And” between values parts separate entries of the source, which are not always exact repeats. Equal values may be shown once. Results filed as inconclusive are left out. The source made the active and inactive calls.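 How the source made its calls: active means valid dose-response fit whose half-maximal growth-inhibiting concentration is at or below a set limit above the top tested dose; inconclusive means flat fit with effect between 30 and 70%, or poor fit; inactive means half-maximal concentration above a set limit.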

Test: antibacterial activity against Clostridioides difficile – 10-point retest, dose response (AID 1259246)
Conditions: Clostridioides difficile clinical isolate growth, OD600, 24 h; at 60 µM (top of the series)

SMILES	activity change, negative = inhibition
C[C@@H]1CN([C@H](C)CO)S(=O)(=O)c2ccc(/C=C/c3ccccc3)cc2O[C@H]1CN(C)Cc1ccccc1	2.59% (inactive)
N#C[C@@H]1[C@@H](c2ccc(C#Cc3cccnc3)cc2)[C@@H](CO)N1C(=O)C1CCCCC1	1.92% (inactive)
COCC#Cc1ccc2c(c1)O[C@H](CN(C)Cc1ccc3c(c1)OCO3)[C@H](C)CN([C@H](C)CO)S2(=O)=O	10.3% (inactive)
CO[C@@H]1CN(C)C(=O)c2ccc(NC(=O)c3ccc(-c4ccccc4)cc3)cc2OC[C@@H](C)NC[C@H]1C	25.2% (inactive)

Same assay, conditions: Clostridioides difficile clinical isolate growth, OD600, 24 h; at 120 µM (top of the series)

SMILES	activity change, negative = inhibition
O=C(C[C@H]1C[C@@H]2c3cc(NC(=O)NC4CCCC4)ccc3O[C@@H]2[C@@H](CO)O1)NCc1ccc(Cl)cc1	8.51% (inactive)
CC(C)CC#Cc1ccc2c(c1)O[C@H](CN(C)Cc1ccc3c(c1)OCO3)[C@H](C)CN([C@H](C)CO)S2(=O)=O	15.4% (inactive)
C[C@@H]1CN([C@H](C)CO)S(=O)(=O)c2ccc(C#CC3CCCCC3)cc2O[C@H]1CN(C)Cc1cccnc1	18.8% (inactive)
O=C(C[C@@H]1C[C@@H]2c3cc(NC(=O)Nc4ccccc4)ccc3O[C@@H]2[C@@H](CO)O1)NC1CCCC1	2.79% (inactive)
C[C@@H]1CN([C@@H](C)CO)C(=O)Cc2cc(NC(=O)c3ccncc3)ccc2O[C@@H]1CN(C)S(=O)(=O)c1cn(C)cn1	37.2% (inactive)
CNC[C@H]1Oc2ccc(NC(=O)C3CC3)cc2CC(=O)N([C@H](C)CO)C[C@H]1C	-1.55% (inactive)
C[C@H]1CN([C@@H](C)CO)S(=O)(=O)c2ccc(C#Cc3ccccc3F)cc2O[C@@H]1CN(C)C	10.1% (inactive)
O=C(C[C@H]1C[C@@H]2c3cc(NS(=O)(=O)c4ccc(F)cc4)ccc3O[C@@H]2[C@H](CO)O1)NCc1ccc(-c2ccccc2)cc1	25.5% (inactive)
C[C@H](CO)N1C[C@H](C)[C@@H](CN(C)C(=O)NC2CCCCC2)Oc2c(NC(=O)Nc3ccccc3)cccc2C1=O	12.2% (inactive)
CO[C@@H]1CN(C)C(=O)c2cc(NC(=O)c3nc4ccccc4s3)ccc2OC[C@@H](C)N(Cc2ccncc2)C[C@@H]1C	14.6% (inactive)
C[C@@H]1CCCCO[C@@H](CN(C)S(=O)(=O)c2ccc(F)cc2)[C@@H](C)CN([C@@H](C)CO)C(=O)c2cc(NC(=O)Nc3cccc4ccccc34)ccc2O1	12.1% (inactive)
C[C@H](CO)N1C[C@H](C)[C@H](CN(C)Cc2ccc(-c3ccccc3)cc2)Oc2c(NC(=O)Nc3ccc(C(F)(F)F)cc3)cccc2C1=O	16.3% (inactive)
CO[C@H]1CN(C)C(=O)c2cc(NC(=O)c3nc4ccccc4s3)ccc2OC[C@@H](C)N(Cc2ccncc2)C[C@H]1C	5.99% (inactive)
C[C@@H]1CCCCO[C@H](CN(C)C(=O)CCC(F)(F)F)[C@H](C)CN([C@@H](C)CO)C(=O)c2cc(NC(=O)c3ccncc3)ccc2O1	14.3% (inactive)
C[C@@H]1CN([C@@H](C)CO)C(=O)Cc2cc(NC(=O)C3CC3)ccc2O[C@@H]1CN(C)Cc1ccc(Oc2ccccc2)cc1	21.3% (inactive)
C[C@@H]1CN([C@@H](C)CO)C(=O)Cc2cc(NC(=O)CCCN(C)C)ccc2O[C@H]1CN(C)Cc1ccncc1	-4.05% (inactive)
CNC[C@@H]1Oc2ccc(NC(=O)CCCN(C)C)cc2CC(=O)N([C@@H](C)CO)C[C@H]1C	-5.36% (inactive)
C[C@@H]1CN([C@@H](C)CO)C(=O)c2cccc(NC(=O)Nc3ccc(C(F)(F)F)cc3)c2O[C@H]1CN(C)C(=O)NC1CCCCC1	15.3% (inactive)
CC(C)C#Cc1ccc2c(c1)O[C@H](CN(C)CC1CCOCC1)[C@H](C)CN([C@@H](C)CO)S2(=O)=O	4.6% (inactive)
C[C@@H]1CN([C@@H](C)CO)S(=O)(=O)c2ccc(C#CCN(C)C)cc2O[C@@H]1CN(C)Cc1ccc(F)cc1	4.72% (inactive)
Cc1ccc(S(=O)(=O)N2C[C@@H](O)COC[C@H]3O[C@H](CC(=O)NCc4ccc(Cl)c(Cl)c4)CC[C@@H]32)cc1	22.9% (inactive) and 25.2% (inactive) and 97.3% (inactive)
CC(C)NC(=O)N(C)C[C@@H]1OCCCC[C@H](C)Oc2ccc(NC(=O)Nc3cccc4ccccc34)cc2C(=O)N([C@H](C)CO)C[C@@H]1C	60.5% (inactive)

SMILES	activity change, negative = inhibition
C[C@@H]1CN([C@H](C)CO)S(=O)(=O)c2ccc(C#CC3CCCCC3)cc2O[C@@H]1CN(C)Cc1cccnc1	20.4% (inactive)
C[C@@H]1CN([C@H](C)CO)S(=O)(=O)c2ccc(C#CC3CCCC3)cc2O[C@H]1CN(C)Cc1cncnc1	38.8% (inactive)
Cc1cc(C(=O)Nc2cccc3c2O[C@H](CN(C)Cc2ccc(-c4ccccc4)cc2)[C@H](C)CN([C@@H](C)CO)C3=O)n(C)n1	0.388% (inactive)
C[C@@H]1CN([C@H](C)CO)C(=O)Cc2cc(NC(=O)C3CC3)ccc2O[C@H]1CN(C)Cc1ccc(-c2ccccc2)cc1	18.8% (inactive)
O=C(C[C@H]1C[C@@H]2c3cc(NC(=O)C4CCC4)ccc3O[C@@H]2[C@@H](CO)O1)NCc1ccc(Cl)cc1	-11.8% (inactive)
CNC[C@H]1Oc2cc(C#CCC(C)C)ccc2S(=O)(=O)N([C@H](C)CO)C[C@@H]1C	19.7% (inactive)
CCCC#Cc1ccc2c(c1)O[C@H](CN(C)Cc1ccc3c(c1)OCO3)[C@H](C)CN([C@@H](C)CO)S2(=O)=O	25.5% (inactive)
C[C@H]1CN([C@@H](C)CO)C(=O)c2cccc(NC(=O)Nc3ccc(C(F)(F)F)cc3)c2O[C@@H]1CN(C)Cc1ccc(-c2ccccc2)cc1	31.9% (inactive)
CO[C@@H]1CN(C)C(=O)c2ccc(NC(=O)c3nc4ccccc4s3)cc2OC[C@@H](C)N(Cc2ccncc2)C[C@@H]1C	14.1% (inactive)
C[C@H](CO)N1C[C@H](C)[C@@H](CN(C)Cc2ccc(-c3ccccc3)cc2)Oc2c(NC(=O)Nc3ccc(C(F)(F)F)cc3)cccc2C1=O	12.2% (inactive)
C[C@H](CO)N1C[C@H](C)[C@H](CN(C)Cc2ccc(Oc3ccccc3)cc2)Oc2ccc(NC(=O)C3CC3)cc2CC1=O	12.9% (inactive)
CCCC#Cc1ccc2c(c1)O[C@H](CN(C)Cc1ccc3c(c1)OCO3)[C@H](C)CN([C@H](C)CO)S2(=O)=O	33% (inactive)
C[C@H](CO)N1C[C@H](C)[C@@H](CN(C)Cc2ccc3c(c2)OCO3)Oc2c(NC(=O)Nc3ccc(C(F)(F)F)cc3)cccc2C1=O	28.9% (inactive)
COc1ccc(S(=O)(=O)N(C)C[C@@H]2Oc3ccc(NC(=O)CCCN(C)C)cc3CC(=O)N([C@@H](C)CO)C[C@H]2C)cc1	-5.12% (inactive)
C[C@@H]1CN([C@@H](C)CO)C(=O)Cc2cc(N(C)C)ccc2O[C@@H]1CN(C)Cc1ccc(-c2ccccc2)cc1	30.2% (inactive)
C[C@@H]1CCCCO[C@H](CN(C)S(=O)(=O)c2ccc(F)cc2)[C@H](C)CN([C@@H](C)CO)C(=O)c2cc(NC(=O)Nc3cccc4ccccc34)ccc2O1	22.9% (inactive)
O=C(C[C@H]1C[C@H]2c3cc(NC(=O)C4CCC4)ccc3O[C@H]2[C@@H](CO)O1)NCc1ccc(Cl)cc1	2.85% (inactive)
Cc1ccc(S(=O)(=O)N[C@H]2CC[C@H](CCNS(=O)(=O)Cc3ccccc3)O[C@H]2CO)cc1	-4.09% (inactive)
C[C@@H]1CN([C@H](C)CO)C(=O)Cc2cc(NC(=O)C3CC3)ccc2O[C@@H]1CN(C)Cc1ccccc1	-3.71% (inactive)
O=C(N[C@H]1CC[C@H](CCNS(=O)(=O)Cc2ccccc2)O[C@H]1CO)c1cnccn1	-2.56% (inactive)
Cc1ccc(S(=O)(=O)N[C@@H]2CC[C@H](CCNS(=O)(=O)Cc3ccccc3)O[C@@H]2CO)cc1	-5.03% (inactive)
C[C@H](CO)N1C[C@H](C)[C@@H](CN(C)Cc2ccc(Oc3ccccc3)cc2)Oc2c(NC(=O)Nc3ccccc3)cccc2C1=O	23.8% (inactive)

Same assay, conditions: Clostridioides difficile clinical isolate growth, OD600, 24 h; at 135 µM (top of the series)

SMILES	activity change, negative = inhibition
O=C(N[C@H]1CC[C@H](CCNS(=O)(=O)Cc2ccccc2)O[C@H]1CO)c1ccccc1F	-3.44% (inactive)
C[C@@H]1CN([C@@H](C)CO)C(=O)Cc2cc(NS(=O)(=O)c3ccccc3)ccc2O[C@@H]1CN(C)Cc1ccc(-c2ccccc2)cc1	17.3% (inactive)
O=C(C[C@H]1C[C@@H]2c3cc(NC(=O)C4CCC4)ccc3O[C@@H]2[C@H](CO)O1)NCc1ccc(Cl)cc1	4.22% (inactive)
CO[C@H]1CN(C)C(=O)c2cc(NC(=O)c3ccc(-c4ccccc4)cc3)ccc2OC[C@H](C)NC[C@@H]1C	34.1% (inactive)
C[C@@H]1CN([C@H](C)CO)C(=O)Cc2cc(NC(=O)C3CC3)ccc2O[C@@H]1CN(C)Cc1ccc(C(F)(F)F)cc1	18% (inactive)
C[C@H]1CN([C@@H](C)CO)C(=O)c2cccc(NC(=O)Nc3ccc4c(c3)OCO4)c2O[C@H]1CN(C)Cc1ccc(-c2ccccc2)cc1	24.8% (inactive)
COc1ccc(CN(C)C[C@H]2Oc3ccc(NC(=O)C4CC4)cc3CC(=O)N([C@H](C)CO)C[C@H]2C)cc1	0.998% (inactive)
C[C@H](CO)N1C[C@H](C)[C@H](CN(C)Cc2ccc(-c3ccccc3)cc2)Oc2ccc(NC(=O)C3CC3)cc2CC1=O	13.1% (inactive)
O=C(C[C@H]1C[C@@H]2c3cc(NC(=O)Nc4ccc(F)cc4)ccc3O[C@@H]2[C@H](CO)O1)NC1CCCCC1	-1.13% (inactive)
C[C@@H]1CN([C@@H](C)CO)C(=O)Cc2cc(NC(=O)C3CC3)ccc2O[C@H]1CN(C)Cc1ccc(Oc2ccccc2)cc1	48% (inactive)
O=C(C[C@@H]1C[C@@H]2c3cc(NS(=O)(=O)c4ccc(F)cc4)ccc3O[C@@H]2[C@@H](CO)O1)NCc1ccc(-c2ccccc2)cc1	18.3% (inactive)
